Experimental data as given in patent US9216166B2, “Anti-microbial photodynamic therapy” (Biolitec Pharma Marketing, Ltd, priority 2006, dated 2015).

Assays:
Format in all cases: cell-based
[1] = system: Staphylococcus aureus DSM1104; experiment: Photodynamic inactivation of Staphylococcus aureus with Safranin O (FIG. 1A)
From the text: (§1) One of the major problems for the use of anti-microbial PDT is a blocking action of the components of the blood whose presence decreases the activity of photosensitizers.
(§2) The antibacterial effect strongly depends on the kind of bacterial cells.
(§3) FIG. 1, Graph showing photodynamic inactivation of Staphylococcus aureus DSM1104 (FIG. 1A), Pseudomonas aeruginosa DSM1 117 (FIG. 1B), and Escherichia coli DSM8698 (FIG. 1C) by treatment with Safranin O as a photo sensitizer.

[2] = system: Pseudomonas aeruginosa DSM1117; experiment: Photodynamic inactivation of Pseudomonas aeruginosa with Safranin O (FIG. 1B)
From the text: as §1, §2, §3

[3] = system: Staphylococcus aureus, Pseudomonas aeruginosa and Escherichia coli; experiment: Photodynamic inactivation of bacteria with Safranin O (FIG. 1)
From the text: as §1, §2, §3

[4] = system: Escherichia coli DSM8698; experiment: Photodynamic inactivation of Escherichia coli with Safranin O (FIG. 1C); settings: compared with Staphylococcus aureus
From the text: as §1, §2, §3

[5] = system: Gram-positive and Gram-negative bacteria; experiment: Photodynamic inactivation of bacterial cell suspension using photosensitizers 1, 3a-e (CFU/ml after 665 nm laser irradiation); settings: in the presence of blood (PBS with 10% human blood), 30 min incubation, about 100 J/cm^2, FIG. 2
Procedure: In the preferred embodiment, the antibacterial treatment includes the administration of photosensitizers to an environment containing bacteria and is allowed to incubate for a sufficient period of time thus providing accumulation of the photosensitizer into the bacterial cells. The incubation time varies depending on many factors. In this experiment it is incubated for 30 min before being irradiated with 665 nm laser at 100 J/cm^2 to initiate photodestruction of bacterial cells. The photosensitizer can be administered either by systemic application, or local injection in the affected area. For infection on or near the skin it can be administered topically.
The organisms used in our studies were three members of the microflora of wounds: Staphylococcus aureus DSM1104, Gram-positive; Escherichia coli DSM8698, Gram-negative; Pseudomonas aeruginosa DSM1117, Gram-negative.
Cultured cells are suspended in sterile phosphate-buffered saline (PBS) or sterile PBS supplemented with 10% sterile horse blood serum, 10% human plasma or 10% human blood respectively. The final OD (Optical Density) at 600 nm, 1 cm in all cases was 0.03. The bacterial suspensions are placed into sterile black well plates with clear bottoms. […]

With `Cc1cc2nc3cc(C)c(N)cc3[n+](-c3ccccc3)c2cc1N.[Cl-]` [Safranin O] the “killing of Gram-positive cells of Staphylococcus aureus by PDT” value [1] was “could be killed sufficiently”, the “effect of added serum, plasma or blood on photodynamic activity against Pseudomonas aeruginosa” value ([2]; addition of 10% of horse serum or human plasma or whole blood) was “practically block the photodynamic activity” and the “susceptibility of Gram-negative cells of Pseudomonas aeruginosa to killing by PDT” value ([2]; compared with Staphylococcus aureus, FIG. 1) was “more resistant to killing by PDT”. The bactericidal photodynamic activity ([3]; in PBS buffer) was “high bactericidal photodynamic activity”, the “change of bactericidal photodynamic activity” value ([3]; when blood serum or blood is added) was “decreased remarkably” and the “susceptibility of Gram-negative cells of Escherichia coli to killing by PDT” value [4] was “more resistant to killing by PDT”.

For `CCC1=C(C)c2cc3[nH]c(cc4nc(c5c6[nH]c(cc1n2)c(C)c6C(=O)C5)[C@@H](CCC(=O)O)C4C)c(C)c3CC` (stereo partly drawn) [compound 1, meso pyropheophorbide-a], the “photodynamic activity against Gram-positive and Gram-negative bacteria” value [5] was “not active”.
